{"source": "paper PMC7889895", "about": "“Crystal structure of a photosynthetic LH1-RC in complex with its electron donor HiPIP” (Nature Communications, 2021)", "target": "T1, HiPIP (Thermochromatium tepidum, UniProt P80176)", "T1 construct": "gene hip; native, purified from cells by DEAE chromatography in the reduced state; co-crystallised with native LH1-RC; with Photosynthetic reaction center cytochrome c subunit", "T1 sequence (P80176 whole entry, other chains not shown)": "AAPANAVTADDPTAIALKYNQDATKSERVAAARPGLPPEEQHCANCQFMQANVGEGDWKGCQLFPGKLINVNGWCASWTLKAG", "assay": "X-ray crystal structure of HiPIP:LH1-RC co-complex, […] Å", "type": "binding", "details": "pH 5; 4Fe-4S cluster ligated by Cys; HiPIP purified in reduced state; bound to LH1-RC", "data": [{"smiles": "[S]12[Fe]3[S]4[Fe]1[S]1[Fe]2[S]3[Fe]41", "note": "[4Fe-4S cluster]", "values": [{"measurement": "X-ray crystal structure of HiPIP:LH1-RC co-complex, 2.9 Å", "result": "Fe atoms in both hemes and the 4Fe-4S cluster were clearly resolved"}]}]}
